Assay results from patent publication EP4389751A1, “HETEROCYCLIC COMPOUNDS AND USES THEREOF” (Kumquat Biosciences Inc., priority 2021, dated 2024).
Like-named read-outs stand apart in the source and are kept apart here.

Key:
K-Ras G12S = target: T1, K-Ras G12S (Homo sapiens, UniProt P01116, G12S); assay: HTRF assay of the K-Ras / SOS1 interaction; format: biochemical; conditions: IC50 (against K-Ras G12D) to IC50 (against K-Ras G12S)
T1 construct: made in house; host or cells: E. coli (e.g., BL21 (DE3))
How it was run: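 Compounds (duplicates, 10 µM to 0.01 µM) were incubated ≥~10 min with Eu-labelled GST-K-Ras G12S and XL665-labelled His-hSOS1 in HEPES pH 7.4 buffer containing NaCl, DTT, BSA and Igepal. Disruption measured as HTRF emission ratio 665/620 nm, fitted to IC50.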

GP2D cells = assay: Cell proliferation assay (CellTiter-Glo), K-Ras G12D cells; format: cell-based; conditions: read-out: Inhibition of GP2D Cells (IC50)
How it was run: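 CellTiter-Glo luminescence, taken roughly 5 days after dosing, measured growth of G12D-mutant GP2D cells in DMEM/2 mM glutamine/10% FBS. Compound dilution series (e.g., 9 points, 3-fold) added the day after plating. Four-parameter fitting gave IC50.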

A549 cells = assay: Cell proliferation assay (CellTiter-Glo), K-Ras G12S cells; format: cell-based; conditions: for IC50: Homo sapiens; for ratio of IC50 against a G12D cell line to IC50 against a G12S cell line: K-Ras G12D cell line such as GP2D relative to K-Ras G12S cell line such as A549, greater than 1, 2, 3, 4, 5, 10, 15 or even greater, 8640 min
How it was run: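 A549 cells (K-Ras G12S) in RPMI-1640 with 10% FBS, seeded in standard or ultra-low-attachment plates and dosed next day with a 10-point 3-fold series. Viability read about 6 days later by CellTiter-Glo luminescence. IC50 from four-parameter fit.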

[1] = A549, A549 cells (K-Ras G12S), bin ≤ 500 nM, read-out: Inhibition of A549 Cells (IC50)
[2] = A549, A549 cells (K-Ras G12S), bin 500 nM to 5 µM, read-out: Inhibition of A549 Cells (IC50)

T1 sequence (P01116 1-188 isoform P01116-2 G12S): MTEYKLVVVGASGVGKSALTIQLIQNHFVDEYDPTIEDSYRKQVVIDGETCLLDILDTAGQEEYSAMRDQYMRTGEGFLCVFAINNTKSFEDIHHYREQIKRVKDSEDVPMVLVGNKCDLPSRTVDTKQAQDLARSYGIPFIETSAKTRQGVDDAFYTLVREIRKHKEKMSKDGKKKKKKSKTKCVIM

SMILES	Ratio of IC50 KRAS G12D vs. IC50 KRAS G12S (K-Ras G12S)	IC50 (GP2D cells; GP2D cells (K-Ras G12D)) [µM]	IC50 (A549 cells; [1]) [µM]	ratio of IC50 against a G12D cell line to IC50 against a G12S cell line (A549 cells)	IC50 (A549 cells; [2]) [µM]	IC50 (GP2D cells; GP2d) [µM]	IC50 (A549 cells; A549, read-out: Inhibition of A549 Cells (IC50)) [µM]
Cc1ncn(C(=O)N2CC3(CCCN(c4nc(OC[C@@]56CCCN5C[C@H](F)C6)nc5c(F)c(-c6ccc(F)c7sc(N)c(C#N)c67)c(Cl)cc45)C3)C2)n1 [Compound A102, 2-amino-4-(6-chloro-8-fluoro-2-(((2R,7aS)-2-fluorotetrahydro-1H-pyrrolizin-7 a(5H)-yl)methoxy)-4-(2-(3-methyl-1H-1,2,4-triazole-1-carbonyl)-2,6-diazaspiro[3.5]nonan-6-yl)quinazolin-7-yl)-7-fluorobenzo[b]thiophene-3-carbonitrile]	A (A: indicates that the ratio of IC50 against KrasG12D vs. IC50 against KrasG12S is 1-fold or greater)	1 to 10	≤ 0.5	greater than 1			
N#CCc1ncn(C(=O)N2CC3(C2)CN(c2nc(OC[C@@]45CCCN4C[C@H](F)C5)nc4c(F)c(-c5ccc(F)c6sc(N)c(C#N)c56)c(Cl)cc24)CCO3)n1 [Compound A110, 2-amino-4-(6-chloro-4-(2-(3-(cyanomethyl)-1H-1,2,4-triazole-1-carbonyl)-5-oxa-2,8-diazaspiro[3.5]nonan-8-yl)-8-fluoro-2-(((2R,7aS)-2-fluorotetrahydro-1H-pyrrolizin-7a(5H)-yl)methoxy)quinazolin-7-yl)-7-fluorobenzo[b]thiophene-3-carbonitrile]	A (A: indicates that the ratio of IC50 against KrasG12D vs. IC50 against KrasG12S is 1-fold or greater)	1 to 10	≤ 0.5	greater than 1			
COCCN1CCC(Oc2nc(N3CCCCC4(CN(C(=O)n5cncn5)C4)C3)c3cc(Cl)c(-c4ccc(F)c5sc(N)c(C#N)c45)c(F)c3n2)CC1 [Compound A119, 4-(4-(2-(1H-1,2,4-triazole-1-carbonyl)-2,6-diazaspiro[3.6]decan-6-yl)-6-chloro-8-fluoro-2-((1-(2-methoxyethyl)piperidin-4-yl)oxy)quinazolin-7-yl)-2-amino-7-fluorobenzo[b]thiophene-3-carbonitrile]	A (A: indicates that the ratio of IC50 against KrasG12D vs. IC50 against KrasG12S is 1-fold or greater)	1 to 10			0.5 to 5		
N#Cc1cn(C(=O)N2C3CCC2CN(c2nc(OC[C@@]45CCCN4C[C@H](F)C5)nc4c(F)c(-c5ccc(F)c6sc(N)nc56)c(Cl)cc24)C3)cn1 [Compound A123, 1-(3-(7-(2-amino-7-fluorobenzo[d]thiazol-4-yl)-6-chloro-8-fluoro-2-(((2R,7aS)-2-fluorotetrahydro-1H-pyrrolizin-7a(5H)-yl)methoxy)quinazolin-4-yl)-3,8-diazabicyclo[3.2. 1]octane-8-carbonyl)-1H-imidazole-4-carbonitrile]	A (A: indicates that the ratio of IC50 against KrasG12D vs. IC50 against KrasG12S is 1-fold or greater)					≤ 1	0.5 to 5
N#Cc1c(N)sc2c(F)ccc(-c3c(Cl)cc4c(N5CCCC6(CN(C(=O)n7cncn7)C6)C5)nc(OC[C@@]56CCCN5C[C@H](F)C6)nc4c3F)c12 [Compound A129, 4-(4-(2-(1H-1,2,4-triazole-1-carbonyl)-2,6-diazaspiro[3.5]nonan-6-yl)-6-chloro-8-fluoro-2-(((2R,7aS)-2-fluorotetrahydro-1H-pyrrolizin-7a(5H)-yl)methoxy)quinazolin-7-yl)-2-amino-7-fluorobenzo[b]thiophene-3-carbonitrile]	A (A: indicates that the ratio of IC50 against KrasG12D vs. IC50 against KrasG12S is 1-fold or greater)	1 to 10	≤ 0.5				
N#Cc1c(N)sc2c(F)ccc(-c3ncc4c(N5CCCC6(CN(C(=O)n7cncn7)C6)C5)nc(OC[C@@]56CCCN5C[C@H](F)C6)nc4c3F)c12 [Compound A134, 4-(4-(2-(1H-1,2,4-triazole-1-carbonyl)-2,6-diazaspiro[3.5]nonan-6-yl)-8-fluoro-2-(((2R,7aS)-2-fluorotetrahydro-1H-pyrrolizin-7a(5H)-yl)methoxy)pyrido[4,3-d]pyrimidin-7-yl)-2-amino-7-fluorobenzo[b]thiophene-3-carbonitrile]	A (A: indicates that the ratio of IC50 against KrasG12D vs. IC50 against KrasG12S is 1-fold or greater)	1 to 10			0.5 to 5		
Nc1nc2c(-c3c(Cl)cc4c(N5CCCC6(CN(C(=O)n7cncn7)C6)C5)nc(OC[C@@]56CCCN5C[C@H](F)C6)nc4c3F)ccc(F)c2s1 [Compound A136, (6-(7-(2-amino-7-fluorobenzo[d]thiazol-4-yl)-6-chloro-8-fluoro-2-(((2R,7aS)-2-fluorotetrahydro-1H-pyrrolizin-7a(5H)-yl)methoxy)quinazolin-4-yl)-2,6-diazaspiro[3.5]nonan-2-yl)(1H-1,2,4-triazol-1-yl)methanone]	A (A: indicates that the ratio of IC50 against KrasG12D vs. IC50 against KrasG12S is 1-fold or greater)	1 to 10		greater than 1	0.5 to 5		
CN1CCC[C@H]1COc1nc(N2CCOC3(CN(C(=O)n4cncn4)C3)C2)c2cc(Cl)c(-c3ccc(F)c4sc(N)c(C#N)c34)c(F)c2n1 [Compound A137, 4-(4-(2-(1H-1,2,4-triazole-1-carbonyl)-5-oxa-2,8-diazaspiro[3.5]nonan-8-yl)-6-chloro-8-fluoro-2-(((S)-1-methylpyrrolidin-2-yl)methoxy)quinazolin-7-yl)-2-amino-7-fluorobenzo[b]thiophene-3-carbonitrile]	A (A: indicates that the ratio of IC50 against KrasG12D vs. IC50 against KrasG12S is 1-fold or greater)	1 to 10	≤ 0.5				
Nc1nc2c(-c3c(Cl)cc4c(N5CCN(C(=O)n6cncn6)CC(F)(F)C5)nc(OC[C@@]56CCCN5C[C@H](F)C6)nc4c3F)ccc(F)c2s1 [Compound A141, (4-(7-(2-amino-7-fluorobenzo[d]thiazol-4-yl)-6-chloro-8-fluoro-2-(((2R,7aS)-2-fluorotetrahydro-1H-pyrrolizin-7a(5H)-yl)methoxy)quinazolin-4-yl)-6,6-difluoro-1,4-diazepan-1-yl)(1H-1,2,4-triazol-1-yl)methanone]	A (A: indicates that the ratio of IC50 against KrasG12D vs. IC50 against KrasG12S is 1-fold or greater)	1 to 10			0.5 to 5		
Nc1nc2c(-c3c(Cl)cc4c(N5CCN(C(=O)n6cncn6)CC5)nc(OC[C@@]56CCCN5C[C@H](F)C6)nc4c3F)ccc(F)c2s1 [Compound A146, (4-(7-(2-amino-7-fluorobenzo[d]thiazol-4-yl)-6-chloro-8-fluoro-2-(((2R,7aS)-2-fluorotetrahydro-1H-pyrrolizin-7a(5H)-yl)methoxy)quinazolin-4-yl)piperazin-1-yl)(1H-1,2,4-triazol-1-yl)methanone]	A (A: indicates that the ratio of IC50 against KrasG12D vs. IC50 against KrasG12S is 1-fold or greater)	≤ 1			0.5 to 5		
Cc1ncn(C(=O)N2CC3(C2)CN(c2nc(OC[C@@]45CCCN4C[C@H](F)C5)nc4c(F)c(-c5ccc(F)c6sc(N)c(C#N)c56)c(Cl)cc24)CCO3)n1 [Compound A148, 2-amino-4-(6-chloro-8-fluoro-2-(((2R,7aS)-2-fluorotetrahydro-1H-pyrrolizin-7 a(5H)-yl)methoxy)-4-(2-(3-methyl-1H-1,2,4-triazole-1-carbonyl)-5-oxa-2,8-diazaspiro[3.5]nonan-8-yl)quinazolin-7-yl)-7-fluorobenzo[b]thiophene-3-carbonitrile]	A (A: indicates that the ratio of IC50 against KrasG12D vs. IC50 against KrasG12S is 1-fold or greater)	1 to 10	≤ 0.5				
N#Cc1c(N)sc2c(F)ccc(-c3c(Cl)cc4c(N5CCC6C5CCCN6C(=O)n5cncn5)nc(OC[C@@]56CCCN5C[C@H](F)C6)nc4c3F)c12 (stereo partly drawn) [Compound A152, 4-(4-(4-(1H-1,2,4-triazole-1-carbonyl)octahydro-1H-pyrrolo[3,2-b]pyridin-1-yl)-6-chloro-8-fluoro-2-(((2R,7aS)-2-fluorotetrahydro-1H-pyrrolizin-7a(5H)-yl)methoxy)quinazolin-7-yl)-2-amino-7-fluorobenzo[b]thiophene-3-carbonitrile]	A (A: indicates that the ratio of IC50 against KrasG12D vs. IC50 against KrasG12S is 1-fold or greater)	≤ 1	≤ 0.5	greater than 1			
